Test results from PMC12189828, “Substitution of Proline Residues by 4-Fluoro-L-Proline Affects the Mechanism of the Proline-Rich Antimicrobial Peptide Api137” (Antibiotics, 2025).
Where a SMILES comes first, the peptide text is derived from it. [ ]: non-standard residue; d: D form. The star is where a group is joined. Orn(α-tetramethylguanidino) = CN(C)C(=N[C@@H](CCCN)C(=O)*)N(C)C; Pro(trans-4-F) = O=C(O)[C@@H]1C[C@@H](F)CN1; Pro(cis-4-F) = O=C(O)[C@@H]1C[C@H](F)CN1

Experiments:
E. coli RN31 = assay: Growth inhibition of E. coli RN31 during 90 min exponential growth phase; format: cell-based, Escherichia coli; conditions: E. coli RN31, 33% TSB, peptide 8 µg/mL, 90 min, OD600; two biological replicates (n = 2)
Protocol: The following steps were performed on ice. Cells were harvested by centrifugation (4000× g, 4 °C, 25 min), washed with TICO buffer (20 mmol/L Hepes-KOH, pH 7.6, 6 mmol/L MgAc2, 30 mmol/L KAc), centrifuged (4000× g, 25 min, 4 °C), and stored at −80 °C. The cell pellet was suspended in TICO buffer (500 µL) and mixed with silica beads (zirconium glass pellets, 100 µm diameter; Carl Roth; Karlsruhe, Germany) to lyse the cells on a FastPrep-24^TM 5G (MP Biomedicals, Solon, OH, USA) using three disruption cycles (30 s, 6.0 m/s) interrupted by 1 min of incubation on ice after each cycle. Cell debris was removed by centrifugation (5000× g, 4 °C, 5 min), the supernatant was transferred to a new reaction tube, centrifuged (20,000× g, 4 °C, 20 min), the absorbance was recorded at 260 nm on a NanoPhotometer® NP80, and the sample was stored at −80 °C. […]

[1] = tested on: in vitro expression of sfGFP in the presence of RF1; assay: In vitro transcription-translation (iTT) assay of sfGFP in the presence of RF1; format: biochemical; conditions: peptide 5 µmol/L, RF1, 37 °C, 2 h, fluorescence, normalized to absence of PrAMPs, n = 3
Protocol: The sfGFP expression analysis relied on the NEB PureExpress Delta RF123 Kit (New England Biolabs, Frankfurt, Germany). The DNA template encoding sfGFP with a UAG stop codon was amplified from the pY71sfGFP vector by PCR using the primers sfGFP fwd ([…]) and sfGFP rev ([…]). The release factor RF1 of the kit was diluted 50-fold (v/v) in 1× Pure System Buffer (PSB, 1 mol/L magnesium acetate, 0.5 mol/L K3PO4 (pH 7.3), 1 mol/L potassium glutamate, 1 mol/L NH4Cl, 0.5 mol/L CaCl2, 1 mol/L spermidine, 0.1 mol/L putrescine, 0.1 mol/L DTT). sfGFP expression was performed in a freshly prepared mixture of kit solution A (2 µL), kit solution B (1.5 µL), 50-fold diluted RF1 (0.5 µL), sfGFP template (0.1325 pmol, 35 ng) or water as control (0.25 µL), PSB (0.25 µL), and a PrAMP (50 or 0 µmol/L) dissolved in water (0.5 µL). The reaction mixture was transferred to a black 384-well plate (flat bottom, PS, 784900, Greiner Bio-One GmbH), covered with a lid, and incubated (37 °C, 2 h) in a microplate reader (Gemini EM, Molecular Devices, San Jose, CA, USA). Fluorescence was recorded every 10 min (λex = 485 nm, λem = 535 nm).

[2] = tested on: 50S subunit assembly / 70S ribosome in E. coli RN31; assay: Ribosome profile analysis (RPA), sucrose gradient of E. coli RN31 lysate; format: cell-based, Escherichia coli; conditions: 90 min; for RPA [pre-50S formation]: E. coli RN31, 33% TSB, peptide 8 µg/mL, 5–25% sucrose gradient, n = 2 (Api137 n = 7)
Protocol: E. coli RN31 was grown in 33% TSB (37 °C, 200 rpm) from a starting OD600 of 0.05 to an OD600 of 0.2, measured on a NanoPhotometer® (NP80; Implen; Westlake Village, CA, USA), and divided into subcultures that were inoculated with a peptide ([…]) before being cultured for 90 min (37 °C, 200 rpm). The following steps were performed on ice. Cells were harvested by centrifugation (4000× g, 4 °C, 25 min), washed with TICO buffer (20 mmol/L Hepes-KOH, pH 7.6, 6 mmol/L MgAc2, 30 mmol/L KAc), centrifuged (4000× g, 25 min, 4 °C), and stored at −80 °C. The cell pellet was suspended in TICO buffer (500 µL) and mixed with silica beads (zirconium glass pellets, 100 µm diameter; Carl Roth; Karlsruhe, Germany) to lyse the cells on a FastPrep-24^TM 5G (MP Biomedicals, Solon, OH, USA) using three disruption cycles (30 s, 6.0 m/s) interrupted by 1 min of incubation on ice after each cycle. Cell debris was removed by centrifugation (5000× g, 4 °C, 5 min), the supernatant was transferred to a new reaction tube, centrifuged (20,000× g, 4 °C, 20 min), the absorbance was recorded at 260 nm on a NanoPhotometer® NP80, and the sample was stored at −80 °C.
A 5% (w/v) sucrose solution (6.5 mL) in TICO buffer containing 2-mercaptoethanol (4 mmol/L) was poured into an open-top centrifuge tube (13.2 mL, 14 × 89 mm, Beckman Coulter) and bottomed with a 25% (w/v) sucrose solution (6.5 mL) in TICO buffer containing 2-mercaptoethanol (4 mmol/L) using a cannula. The tube was sealed with parafilm and placed horizontally at 4 °C for 3 h and vertically at 4 °C for 30 min. A portion of the upper layer (550 µL) was replaced by lysate (500 µL, A260 = 30) and centrifuged using a swing-out rotor (SW 41 Ti, 52,500× g, 4 °C, 19 h) without a brake. The contents were transferred from bottom-up to obtain equal volumes in all wells of a black 96-well plate with a flat bottom (96 Well PP black Greiner Bio-One GmbH, Frickenhausen, Germany) using the Äkta Purifier 10 system, and absorbance was recorded at a wavelength of 254 nm. Fluorescence was measured in the plate using the PARADIGM at excitation (λex) and emission (λem) wavelengths of 485 nm and 535 nm for eGFP and 585 nm and 635 nm, respectively, for mCherry and normalized to the 70S ribosome peak (set to 100%).

CC[C@H](C)[C@H](NC(=O)[C@H](Cc1ccc(O)cc1)NC(=O)[C@@H](NC(=O)[C@@H]1CCCN1C(=O)[C@H](CCCNC(=N)N)NC(=O)[C@H](CC(N)=O)NC(=O)[C@H](CC(N)=O)NC(=O)[C@H](CCCN)N=C(N(C)C)N(C)C)C(C)C)C(=O)N1CCC[C@H]1C(=O)N[C@@H](CCCNC(=N)N)C(=O)N1CCC[C@H]1C(=O)N[C@@H](CCCNC(=N)N)C(=O)N1CCC[C@H]1C(=O)N1CCC[C@H]1C(=O)N[C@@H](Cc1c[nH]cn1)C(=O)N1C[C@@H](F)C[C@H]1C(=O)N[C@@H](CCCNC(=N)N)C(=O)N[C@@H](CC(C)C)C(=O)O [Api849] ({Orn(α-tetramethylguanidino)}-NNRPVYIPRPRPPH[Pro(cis-4-F)]RL-OH)
reduction of bacterial growth vs untreated control (E. coli RN31): 16%
Residual iTT (sfGFP expression relative to no PrAMP) ([1]; listed as 4S-Fpr16): 63%
Residual iTT (sfGFP expression relative to no PrAMP) ([1]; listed as Pro16 4S-Fpr (cis)): 63 ± 8.9%
RPA [pre-50S formation] [2]: no

CC[C@H](C)[C@H](NC(=O)[C@H](Cc1ccc(O)cc1)NC(=O)[C@@H](NC(=O)[C@@H]1CCCN1C(=O)[C@H](CCCNC(=N)N)NC(=O)[C@H](CC(N)=O)NC(=O)[C@H](CC(N)=O)NC(=O)[C@H](CCCN)N=C(N(C)C)N(C)C)C(C)C)C(=O)N1CCC[C@H]1C(=O)N[C@@H](CCCNC(=N)N)C(=O)N1C[C@@H](F)C[C@H]1C(=O)N[C@@H](CCCNC(=N)N)C(=O)N1CCC[C@H]1C(=O)N1CCC[C@H]1C(=O)N[C@@H](Cc1c[nH]cn1)C(=O)N1CCC[C@H]1C(=O)N[C@@H](CCCNC(=N)N)C(=O)N[C@@H](CC(C)C)C(=O)O [Api841] ({Orn(α-tetramethylguanidino)}-NNRPVYIPR[Pro(cis-4-F)]RPPHPRL-OH)
reduction of bacterial growth vs untreated control (E. coli RN31): 65%
Residual iTT (sfGFP expression relative to no PrAMP) [1]: 32 ± 0.9%
RPA [pre-50S formation] [2]: yes

CC[C@H](C)[C@H](NC(=O)[C@H](Cc1ccc(O)cc1)NC(=O)[C@@H](NC(=O)[C@@H]1C[C@@H](F)CN1C(=O)[C@H](CCCNC(=N)N)NC(=O)[C@H](CC(N)=O)NC(=O)[C@H](CC(N)=O)NC(=O)[C@H](CCCN)N=C(N(C)C)N(C)C)C(C)C)C(=O)N1CCC[C@H]1C(=O)N[C@@H](CCCNC(=N)N)C(=O)N1CCC[C@H]1C(=O)N[C@@H](CCCNC(=N)N)C(=O)N1CCC[C@H]1C(=O)N1CCC[C@H]1C(=O)N[C@@H](Cc1c[nH]cn1)C(=O)N1CCC[C@H]1C(=O)N[C@@H](CCCNC(=N)N)C(=O)N[C@@H](CC(C)C)C(=O)O [Api840] ({Orn(α-tetramethylguanidino)}-NNR[Pro(trans-4-F)]VYIPRPRPPHPRL-OH)
Residual iTT (sfGFP expression relative to no PrAMP) [1]: 35 ± 0.1%
RPA [pre-50S formation] [2]: yes

CC[C@H](C)[C@H](NC(=O)[C@H](Cc1ccc(O)cc1)NC(=O)[C@@H](NC(=O)[C@@H]1C[C@H](F)CN1C(=O)[C@H](CCCNC(=N)N)NC(=O)[C@H](CC(N)=O)NC(=O)[C@H](CC(N)=O)NC(=O)[C@H](CCCN)N=C(N(C)C)N(C)C)C(C)C)C(=O)N1CCC[C@H]1C(=O)N[C@@H](CCCNC(=N)N)C(=O)N1CCC[C@H]1C(=O)N[C@@H](CCCNC(=N)N)C(=O)N1CCC[C@H]1C(=O)N1CCC[C@H]1C(=O)N[C@@H](Cc1c[nH]cn1)C(=O)N1CCC[C@H]1C(=O)N[C@@H](CCCNC(=N)N)C(=O)N[C@@H](CC(C)C)C(=O)O [Api839] ({Orn(α-tetramethylguanidino)}-NNR[Pro(cis-4-F)]VYIPRPRPPHPRL-OH)
Residual iTT (sfGFP expression relative to no PrAMP) [1]: 23 ± 0.2%
RPA [pre-50S formation] [2]: yes

CC[C@H](C)[C@H](NC(=O)[C@H](Cc1ccc(O)cc1)NC(=O)[C@@H](NC(=O)[C@@H]1CCCN1C(=O)[C@H](CCCNC(=N)N)NC(=O)[C@H](CC(N)=O)NC(=O)[C@H](CC(N)=O)NC(=O)[C@H](CCCN)N=C(N(C)C)N(C)C)C(C)C)C(=O)N1CCC[C@H]1C(=O)N[C@@H](CCCNC(=N)N)C(=O)N1CCC[C@H]1C(=O)N[C@@H](CCCNC(=N)N)C(=O)N1CCC[C@H]1C(=O)N1C[C@H](F)C[C@H]1C(=O)N[C@@H](Cc1c[nH]cn1)C(=O)N1CCC[C@H]1C(=O)N[C@@H](CCCNC(=N)N)C(=O)N[C@@H](CC(C)C)C(=O)O [Api848] ({Orn(α-tetramethylguanidino)}-NNRPVYIPRPRP[Pro(trans-4-F)]HPRL-OH)
Residual iTT (sfGFP expression relative to no PrAMP) ([1]; listed as 4R-Fpr14): 64%
Residual iTT (sfGFP expression relative to no PrAMP) ([1]; listed as Pro14 4R-Fpr (trans)): 64 ± 4.6%
RPA [pre-50S formation] [2]: no

CC[C@H](C)[C@H](NC(=O)[C@H](Cc1ccc(O)cc1)NC(=O)[C@@H](NC(=O)[C@@H]1CCCN1C(=O)[C@H](CCCNC(=N)N)NC(=O)[C@H](CC(N)=O)NC(=O)[C@H](CC(N)=O)NC(=O)[C@H](CCCN)N=C(N(C)C)N(C)C)C(C)C)C(=O)N1CCC[C@H]1C(=O)N[C@@H](CCCNC(=N)N)C(=O)N1CCC[C@H]1C(=O)N[C@@H](CCCNC(=N)N)C(=O)N1CCC[C@H]1C(=O)N1C[C@@H](F)C[C@H]1C(=O)N[C@@H](Cc1c[nH]cn1)C(=O)N1CCC[C@H]1C(=O)N[C@@H](CCCNC(=N)N)C(=O)N[C@@H](CC(C)C)C(=O)O [Api847] ({Orn(α-tetramethylguanidino)}-NNRPVYIPRPRP[Pro(cis-4-F)]HPRL-OH)
Residual iTT (sfGFP expression relative to no PrAMP) ([1]; listed as 4S-Fpr14): 21%
Residual iTT (sfGFP expression relative to no PrAMP) ([1]; listed as Pro14 4S-Fpr (cis)): 21 ± 0.2%
RPA [pre-50S formation] [2]: reduced
ribosomal profile, pre-50S peak ([2]; E. coli RN31, adjusted peptide concentration 16 µg/mL): a pre-50S peak was observed
